Experimental findings from patent US9402912B2, “Antibiotic conjugates directly linked with steroid drugs” (Allergan, Inc., priority 2013, dated 2016) are described below.

The format of data set [1] is in vitro ADME, Dutch Belted rabbits. The following applies: Dutch Belted, rabbit, 1 μM, pH 6. Here is the method:
Dutch Belted rabbits were euthanized with an overdose of sodium pentobarbital. The corneas were collected and homogenized in ice-cold potassium chloride solution (pH=7.4). The homogenate was centrifuged at 755×g for 30 min at 4° C. and aliquots of the supernatant were stored at or below −70° C. until metabolism experiments were conducted. Prior to storing the homogenates an aliquot was removed for determination of protein concentrations by calculating the 260 nm absorbance using a spectrophotometer. Human recombinant carboxylesterases were purchased from a commercial vendor (BD Gentest™, Bedford, Mass.)
All metabolic stability experiments were performed in triplicate in 96-well plate format. The final incubation mixture contained 1 μM test compound, 0.3 mg/mL corneal protein homogenate or 0.1 mg/mL human recombinant carboxylesterase mixture in a final volume of 0.5 mL 0.1M potassium phosphate buffer (pH=6.0). The final percentage of solvent in the incubation was less than 1.0% to prevent inhibition of enzymatic activity. Following a pre-incubation at 37° C., test article was added to initiate the reaction. At designated time points (typically less than 60 minutes to capture the linear range of metabolite formation), 0.05 mL aliquots were removed from the incubation mixtures using a clean pipet tip and immediately placed in organic solvent to stop any esterase activity. The hydrolysis to the metabolites was confirmed to be due to esterase activity and not chemical lability.
The samples were analyzed by liquid chromatography with mass spectrometry (LC-MS/MS) detection to determine the metabolite concentrations resulting from the metabolism of the hybrid compounds. Internal standards were used to compensate for variability from sample processing, chromatographic elution, mass spectrometer response and ion suppression by matrix components.

Data set [2] in a line: Ocular pharmacokinetics following a single topical ophthalmic administration in rabbits. The format is in vivo, New Zealand White Rabbits. The following applies: single topical ocular dose of 0.4% (w/v) solution; cornea, aqueous humor, conjunctiva, eyelid margin; FIG. 2. Here is the method: Rabbits were dosed once by ocular instillation to both eyes with each compound formulated in a 0.4% (w/v) solution. At 0.25, 0.5, 1, 2, 6, and 10 hours post dose cornea, aqueous humor, conjunctiva and eyelid margin were collected and stored at approximately −70° C. until bioanalysis. Ocular tissue samples were analyzed by liquid chromatography with mass spectrometry (LC-MS/MS) detection to determine the parent (i.e., ester linked hybrids) and metabolite (i.e. steroid and antibiotic) concentrations resulting from the metabolism of ester linked hybrids. Internal standards were used to compensate for variability from sample processing, chromatographic elution, mass spectrometer response and ion suppression by matrix components.

Turning to `COc1c(N2CCNC(C)C2)c(F)cc2c(=O)c(C(=O)OCC(=O)[C@]3(O)[C@H](C)C[C@@H]4[C@H]5CCC6=CC(=O)C=C[C@@]6(C)[C@]5(F)[C@H](O)C[C@]43C)cn(C3CC3)c12` (relative stereo) [Compound 1, 2-[(8R,9S,10R,11R,13R,14R,16R,17S)-9-fluoro-11,17-dihydroxy-10,13,16-trimethyl-3-oxo-6,7,8,9,10,11,12,13,14,15,16,17-dodecahydro-3H-cyclopenta[a]phenanthren-17-yl]-2-oxoethyl rel-1-cyclopropyl-6-fluoro-8-methoxy-7-(3-methylpiperazin-1-yl)-4-oxo-1,4-dihydroquinoline-3-carboxylate], in data set [1], the “Rate of formation Metabolite 1 (Betamethasone)” value came to 7.27 ± 0.58 nM/min/mg and the “Rate of formation Metabolite 2 (Gatifloxacin)” value (from here on “Rate … (Gatifloxacin)”) worked out at 4.45 ± 0.28 nM/min/mg.

Consider `COc1c(N2CCNC(C)C2)c(F)cc2c(=O)c(C(=O)OCC(=O)[C@]3(O)CC[C@@H]4[C@H]5CCC6=CC(=O)C=C[C@@]6(C)[C@@H]5[C@H](O)C[C@]43C)cn(C3CC3)c12` (relative stereo) [Compound 12, 2-[(8R,9R,10S,11R,13R,14R,17S)-11,17-dihydroxy-10,13-dimethyl-3-oxo-6,7,8,9,10,11,12,13,14,15,16,17-dodecahydro-3H-cyclopenta[a]phenanthren-17-yl]-2-oxoethyl rel-1-cyclopropyl-6-fluoro-8-methoxy-7-(3-methylpiperazin-1-yl)-4-oxo-1,4-dihydroquinoline-3-carboxylate], for which, in data set [2], the “uptake into ocular tissues and cleavage to Prednisolone and Gatifloxacin (AUC0-10hr)” value is “taken up into rabbit ocular tissues and enzymatically hydrolyzed to the individual antibiotic and steroid”. Moreover, in data set [1], the “Rate of formation Metabolite 1 (Prednisolone)” value came to 6.02 ± 0.63 nM/min/mg and the “Rate … (Gatifloxacin)” value is on record as 3.46 ± 0.50 nM/min/mg.

As for `COc1c(N2CCNC(C)C2)c(F)cc2c(=O)c(C(=O)OCC(=O)[C@]3(O)[C@@H](C)C[C@@H]4[C@H]5CCC6=CC(=O)C=C[C@@]6(C)[C@]5(F)[C@H](O)C[C@]43C)cn(C3CC3)c12` (relative stereo) [Compound 7, 2-[(8R,9S,10R,11R,13R,14R,16S,17S)-9-fluoro-11,17-dihydroxy-10,13,16-trimethyl-3-oxo-6,7,8,9,10,11,12,13,14,15,16,17-dodecahydro-3H-cyclopenta[a]phenanthren-17-yl]-2-oxoethyl rel-1-cyclopropyl-6-fluoro-8-methoxy-7-(3-methylpiperazin-1-yl)-4-oxo-1,4-dihydroquinoline-3-carboxylate], in data set [1], the “Rate of formation Metabolite 1 (Dexamethasone)” value is 7.31 ± 0.62 nM/min/mg and the “Rate … (Gatifloxacin)” value is on record as 4.93 ± 0.48 nM/min/mg.
